Source: patent US12679878B2, “CRF2 receptor agonists and their use in therapy” (SANOFI, priority 2020, dated 2026)
Starred links: 1 amine or outer side, 2 acyl side, 3 side chain; linkers in the order of their positions; H or OH if unused. Non-standard residues stand in square brackets, D forms with d. Residues, ends and D or L forms follow the SMILES beside them. Groups on a side chain read outwards from the residue. *: point of attachment. C18 diacid = O=C(O)CCCCCCCCCCCCCCCCC(=O)*; γGlu = O=C(O)[C@H](CCC(=O)[*:2])N[*:1]; AEEA = NCCOCCOCC(=O)O; Aib = CC(C)(N)C(=O)O

These compounds were tested against T1, human CRF2α receptor (Homo sapiens, UniProt Q13324) (assay: cAMP agonism at human CRF2 α receptor in TeloHEAC cells (Example 7)). Details: cAMP HTRF, TeloHEAC cells stably expressing human CRF2 α, 0% HSA; read-out: EC50 [nM], 0% HSA.
T1 construct: expressed in transfected cells; host or cells: TeloHEAC
T1 sequence (Q13324 1-411): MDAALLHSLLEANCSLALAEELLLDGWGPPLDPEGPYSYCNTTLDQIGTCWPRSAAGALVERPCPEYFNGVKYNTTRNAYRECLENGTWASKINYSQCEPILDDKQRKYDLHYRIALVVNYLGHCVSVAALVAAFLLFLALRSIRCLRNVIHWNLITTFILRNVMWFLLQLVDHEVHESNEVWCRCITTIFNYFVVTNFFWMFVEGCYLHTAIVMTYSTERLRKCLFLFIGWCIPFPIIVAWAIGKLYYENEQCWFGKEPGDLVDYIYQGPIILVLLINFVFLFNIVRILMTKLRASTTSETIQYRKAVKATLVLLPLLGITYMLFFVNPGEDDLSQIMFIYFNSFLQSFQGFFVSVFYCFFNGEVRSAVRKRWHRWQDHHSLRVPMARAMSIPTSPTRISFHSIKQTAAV
Assay type: cell-based
Procedure: Agonism of compounds for human corticotropin-releasing factor 2α (CRF2 α receptor) was determined by functional assays measuring CAMP response of a TeloHEAC cell line stably expressing human CRF2 α receptor.
Cells were grown in a T175 culture flask placed at 37° C. to near confluence in medium (DMEM/10% FBS) and collected in 2 ml vials in cell culture medium containing 10% DMSO in a concentration of 10-50 million cells/ml. Each vial contained 1.8 ml cells. The vials were slowly frozen to −80° C. in isopropanol and then transferred in liquid nitrogen for storage. Prior to use, frozen cells were thawed quickly at 37° C. and washed (5 min at 900 rpm) with 20 ml cell buffer (1×HBSS; 20 mM HEPES; 0% or 0.1% HSA). Cells were resuspended in assay buffer (cell buffer plus 2 mM IBMX) and adjusted to a cell density of 1 million cells/ml. For measurement, 5 μl cells (final […]) and 5 μL of test compound were added to a 384-well plate, followed by incubation for 30 minutes at room temperature.
The CAMP content of cells was determined using a kit from Cisbio Corp. (cat. no. 62AM4PEC) based on HTRF (Homogenous Time Resolved Fluorescence). After addition of HTRF reagents diluted in lysis buffer (kit components), the plates were incubated for 1 h, followed by measurement of the fluorescence ratio at 665/620 nm. The percent activity value (E %) was calculated by setting 1000 nM of urocortin 2 (UCN2) as 100%. The in vitro potency of the compounds was quantified by determining the concentrations that caused 50% activation of maximal response (EC50).

Compound	EC50
CC[C@H](C)[C@H](N)C(=O)N[C@H](C(=O)N[C@@H](CC(C)C)C(=O)N[C@@H](CO)C(=O)N[C@@H](CC(C)C)C(=O)N[C@@H](CC(=O)O)C(=O)N[C@H](C(=O)N1CCC[C@H]1C(=O)N[C@H](C(=O)N[C@@H](CCCCN)C(=O)N[C@@H](CC(C)C)C(=O)N[C@@H](CCCCNC(=O)COCCOCCNC(=O)COCCOCCNC(=O)CC[C@H](NC(=O)CCCCCCCCCCCCCCCCC(=O)O)C(=O)O)C(=O)N[C@@H](CCC(N)=O)C(=O)N[C@H](C(=O)N[C@@H](CC(C)C)C(=O)N[C@@H](CC(C)C)C(=O)N[C@@H](CCC(=O)O)C(=O)N[C@@H](CCC(N)=O)C(=O)N[C@@H](CCC(=O)O)C(=O)N[C@@H](CCCNC(=N)N)C(=O)N[C@@H](CCC(N)=O)C(=O)N[C@@H](CCCNC(=N)N)C(=O)NC(C)(C)C(=O)N[C@@H](CCC(=O)O)C(=O)N[C@@H](CCCNC(=N)N)C(=O)N[C@@H](CCC(N)=O)C(=O)N[C@@H](CCC(N)=O)C(=O)N[C@@H](C)C(=O)N[C@@H](CCC(=O)O)C(=O)N[C@@H](CCCCN)C(=O)N[C@@H](CC(N)=O)C(=O)N[C@H](C(=O)N[C@@H](CCCNC(=N)N)C(=O)N[C@H](C(=O)N[C@@H](CC(C)C)C(=O)N[C@@H](CCC(=O)O)C(=O)N[C@@H](CCCNC(=N)N)C(=O)N[C@H](C(N)=O)C(C)C)[C@@H](C)CC)C(C)C)[C@@H](C)CC)[C@@H](C)CC)C(C)C)C(C)C [compound 42] (H-IVLSLDVPIKLK([AEEA-AEEA-γGlu-C18 diacid])QILLEQERQR[Aib]ERQQAEKNVRILERV-NH2)	15.4 nM
CC[C@H](C)[C@H](N)C(=O)N[C@H](C(=O)N[C@@H](CC(C)C)C(=O)N[C@@H](CO)C(=O)N[C@@H](CC(C)C)C(=O)N[C@@H](CC(=O)O)C(=O)N[C@H](C(=O)N1CCC[C@H]1C(=O)N[C@H](C(=O)N[C@@H](CCCCN)C(=O)N[C@@H](CC(C)C)C(=O)N[C@@H](CCCCNC(=O)COCCOCCNC(=O)COCCOCCNC(=O)CC[C@H](NC(=O)CCCCCCCCCCCCCCCCC(=O)O)C(=O)O)C(=O)N[C@@H](CCC(N)=O)C(=O)N[C@H](C(=O)N[C@@H](CC(C)C)C(=O)N[C@@H](CC(C)C)C(=O)N[C@@H](CCC(=O)O)C(=O)N[C@@H](CCC(N)=O)C(=O)N[C@@H](C)C(=O)N[C@@H](CCCCN)C(=O)N[C@@H](CCC(N)=O)C(=O)N[C@@H](CCCCN)C(=O)N[C@@H](CCCCN)C(=O)N[C@@H](CCC(=O)O)C(=O)N[C@@H](CCCNC(=N)N)C(=O)N[C@@H](C)C(=O)N[C@@H](CCC(N)=O)C(=O)N[C@@H](C)C(=O)N[C@@H](CCC(=O)O)C(=O)N[C@H](C(=O)N[C@@H](CC(N)=O)C(=O)N[C@H](C(=O)N[C@@H](CCCNC(=N)N)C(=O)N[C@H](C(=O)N[C@@H](CC(C)C)C(=O)N[C@@H](CCC(=O)O)C(=O)N[C@@H](CCCNC(=N)N)C(=O)N[C@H](C(N)=O)C(C)C)[C@@H](C)CC)C(C)C)[C@@H](C)O)[C@@H](C)CC)[C@@H](C)CC)C(C)C)C(C)C [compound 44] (H-IVLSLDVPIKLK([AEEA-AEEA-γGlu-C18 diacid])QILLEQAKQKKERAQAETNVRILERV-NH2)	13.7 nM
CC[C@H](C)[C@H](N)C(=O)N[C@H](C(=O)N[C@@H](CC(C)C)C(=O)N[C@@H](CO)C(=O)N[C@@H](CC(C)C)C(=O)N[C@@H](CC(=O)O)C(=O)N[C@H](C(=O)N1CCC[C@H]1C(=O)N[C@H](C(=O)N[C@@H](CCCCN)C(=O)N[C@@H](CC(C)C)C(=O)N[C@@H](CCCCNC(=O)COCCOCCNC(=O)COCCOCCNC(=O)CC[C@H](NC(=O)CCCCCCCCCCCCCCCCC(=O)O)C(=O)O)C(=O)N[C@@H](CCC(N)=O)C(=O)N[C@H](C(=O)N[C@@H](CC(C)C)C(=O)N[C@@H](CC(C)C)C(=O)N[C@@H](CCC(=O)O)C(=O)N[C@@H](CCC(N)=O)C(=O)N[C@@H](CCC(=O)O)C(=O)N[C@@H](CCCNC(=N)N)C(=O)N[C@@H](CCC(N)=O)C(=O)N[C@@H](CCCNC(=N)N)C(=O)NC(C)(C)C(=O)N[C@@H](CCC(=O)O)C(=O)N[C@@H](CCCNC(=N)N)C(=O)N[C@@H](CCC(N)=O)C(=O)N[C@@H](CCC(N)=O)C(=O)N[C@@H](C)C(=O)N[C@@H](CCC(=O)O)C(=O)N[C@H](C(=O)N[C@@H](CC(N)=O)C(=O)N[C@H](C(=O)N[C@@H](CCC(N)=O)C(=O)N[C@H](C(=O)N[C@@H](CC(C)C)C(=O)N[C@@H](C)C(=O)N[C@@H](CCC(N)=O)C(=O)N[C@H](C(N)=O)C(C)C)[C@@H](C)CC)C(C)C)[C@@H](C)O)[C@@H](C)CC)[C@@H](C)CC)C(C)C)C(C)C [compound 48] (H-IVLSLDVPIKLK([AEEA-AEEA-γGlu-C18 diacid])QILLEQERQR[Aib]ERQQAETNVQILAQV-NH2; N-terminus assumed)	2.2 nM
CC[C@H](C)[C@H](N)C(=O)N[C@H](C(=O)N[C@@H](CC(C)C)C(=O)N[C@@H](CO)C(=O)N[C@@H](CC(C)C)C(=O)N[C@@H](CC(=O)O)C(=O)N[C@H](C(=O)N1CCC[C@H]1C(=O)N[C@H](C(=O)N[C@@H](CCCCN)C(=O)N[C@@H](CC(C)C)C(=O)N[C@@H](CCCCNC(=O)COCCOCCNC(=O)COCCOCCNC(=O)CC[C@H](NC(=O)CCCCCCCCCCCCCCCCC(=O)O)C(=O)O)C(=O)N[C@@H](CCC(N)=O)C(=O)N[C@H](C(=O)N[C@@H](CC(C)C)C(=O)N[C@@H](CC(C)C)C(=O)N[C@@H](CCC(=O)O)C(=O)N[C@@H](CCC(N)=O)C(=O)N[C@@H](CCC(=O)O)C(=O)N[C@@H](CCCNC(=N)N)C(=O)N[C@@H](CCC(N)=O)C(=O)N[C@@H](CCCNC(=N)N)C(=O)NC(C)(C)C(=O)N[C@@H](CCC(=O)O)C(=O)N[C@@H](CCCNC(=N)N)C(=O)N[C@@H](CCC(N)=O)C(=O)N[C@@H](CCC(N)=O)C(=O)N[C@@H](C)C(=O)N[C@@H](CCC(=O)O)C(=O)N[C@H](C(=O)N[C@@H](CC(N)=O)C(=O)N[C@H](C(=O)N[C@@H](CCCNC(=N)N)C(=O)N[C@H](C(=O)N[C@@H](CC(C)C)C(=O)N[C@@H](CCC(=O)O)C(=O)N[C@@H](CCCNC(=N)N)C(=O)N[C@H](C(N)=O)C(C)C)[C@@H](C)CC)C(C)C)[C@@H](C)O)[C@@H](C)CC)[C@@H](C)CC)C(C)C)C(C)C [compound 49] (H-IVLSLDVPIKLK([AEEA-AEEA-γGlu-C18 diacid])QILLEQERQR[Aib]ERQQAETNVRILERV-NH2; N-terminus assumed)	12.7 nM
CC[C@H](C)[C@H](N)C(=O)N[C@H](C(=O)N[C@@H](CC(C)C)C(=O)N[C@@H](CO)C(=O)N[C@@H](CC(C)C)C(=O)N[C@@H](CC(=O)O)C(=O)N[C@H](C(=O)N1CCC[C@H]1C(=O)N[C@H](C(=O)N[C@@H](CCCCN)C(=O)N[C@@H](CC(C)C)C(=O)N[C@@H](CCCCNC(=O)COCCOCCNC(=O)COCCOCCNC(=O)CC[C@H](NC(=O)CCCCCCCCCCCCCCCCC(=O)O)C(=O)O)C(=O)N[C@@H](CCC(N)=O)C(=O)N[C@H](C(=O)N[C@@H](CC(C)C)C(=O)N[C@@H](CC(C)C)C(=O)N[C@@H](CCCCN)C(=O)N[C@@H](CCC(N)=O)C(=O)N[C@@H](CCC(=O)O)C(=O)N[C@@H](CCCNC(=N)N)C(=O)N[C@@H](CCC(N)=O)C(=O)N[C@@H](CCCNC(=N)N)C(=O)NC(C)(C)C(=O)N[C@@H](CCC(=O)O)C(=O)N[C@@H](CCCNC(=N)N)C(=O)N[C@@H](CCC(N)=O)C(=O)N[C@@H](CCC(N)=O)C(=O)N[C@@H](C)C(=O)N[C@@H](CCC(=O)O)C(=O)N[C@H](C(=O)N[C@@H](CC(N)=O)C(=O)N[C@H](C(=O)N[C@@H](CCCNC(=N)N)C(=O)N[C@H](C(=O)N[C@@H](CC(C)C)C(=O)N[C@@H](CCC(=O)O)C(=O)N[C@@H](CCCNC(=N)N)C(=O)N[C@H](C(N)=O)C(C)C)[C@@H](C)CC)C(C)C)[C@@H](C)O)[C@@H](C)CC)[C@@H](C)O)C(C)C)C(C)C [compound 50] (H-IVLSLDVPTKLK([AEEA-AEEA-γGlu-C18 diacid])QILLKQERQR[Aib]ERQQAETNVRILERV-NH2; N-terminus assumed)	17.2 nM
